Measurements as given in the supplement of paper PMC10307832.

Legend:
Assay in all cases: relative viability (nuclei count vs DMSO), 5 days (fraction); higher = more cells survive
HCC-44 = test system: HCC-44
Outline: (§1)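 Nuclei were stained with Hoechst during a one-step fixation (final 0.05% Triton X-100, 1% formaldehyde, 1 ug/ml Hoechst) carried out 5 days after dosing, then counted on 4× images. The cells, lung cancer lines in 1536-well plates, had been dosed by pin tool the day after seeding with one drug alone or a fixed anchor-drug dose plus five library-drug doses (not always all listed) in √10 steps. Relative viability is the nuclei count in treated wells divided by that in vehicle wells, and each value is the median of duplicate plates.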

SW 1573 = test system: SW 1573
Outline: as §1

LC-2-ad = test system: LC-2-ad
Outline: as §1

NCI-H2126 = test system: NCI-H2126
Outline: as §1

NCI-H650 = test system: NCI-H650
Outline: as §1

PC-14 = test system: PC-14
Outline: as §1

UMC-11 = test system: UMC-11
Outline: as §1

NCI-H1915 = test system: NCI-H1915
Outline: as §1

NCI-H1355 = test system: NCI-H1355
Outline: as §1

NCI-H1651 = test system: NCI-H1651
Outline: as §1

EPLC-272H = test system: EPLC-272H
Outline: as §1

NCI-H2085 = test system: NCI-H2085
Outline: as §1

HOP-62 = test system: HOP-62
Outline: as §1

HCC-15 = test system: HCC-15
Outline: as §1

ABC-1 = test system: ABC-1
Outline: as §1

LU99A = test system: LU99A
Outline: as §1

NCI-H838 = test system: NCI-H838
Outline: as §1

NCI-H2347 = test system: NCI-H2347
Outline: as §1

HARA = test system: HARA
Outline: as §1

NCI-H1993 = test system: NCI-H1993
Outline: as §1

NCI-H2023 = test system: NCI-H2023
Outline: as §1

COR-L23 = test system: COR-L23
Outline: as §1

For CC(=O)O[C@@]12CO[C@@H]1C[C@H](O)[C@@]1(C)C(=O)[C@H](O)C3=C(C)[C@@H](OC(=O)[C@H](O)[C@@H](NC(=O)OC(C)(C)C)c4ccccc4)C[C@@](O)([C@@H](OC(=O)c4ccccc4)[C@H]21)C3(C)C [Docetaxel] + CS(=O)(=O)N1CCN(Cc2cc3nc(-c4cccc5[nH]ncc45)nc(N4CCOCC4)c3s2)CC1 [Pictilisib] (partner 1 µM), the relative viability (HCC-44; first compound 0.0002 µM) was 0.406, the relative viability (HCC-44; first compound 0.000632 µM) was 0.44 and the relative viability (HCC-44; first compound 0.002 µM) was 0.421. For the same compound, the relative viability (HCC-44; first compound 0.006325 µM) was 0.144, the relative viability (HCC-44; first compound 0.02 µM) was 0.0949 and the relative viability (SW 1573; first compound 0.0002 µM) was 0.372. It also gave a relative viability (SW 1573; first compound 0.000632 µM) of 0.314, a relative viability (SW 1573; first compound 0.002 µM) of 0.196 and a relative viability (SW 1573; first compound 0.006325 µM) of 0.153. For the same compound, the relative viability (SW 1573; first compound 0.02 µM) was 0.144, the relative viability (LC-2-ad; first compound 0.0002 µM) was 0.29 and the relative viability (LC-2-ad; first compound 0.002 µM) was 0.106. For the same compound, the relative viability (LC-2-ad; first compound 0.006325 µM) was 0.113, the relative viability (LC-2-ad; first compound 0.02 µM) was 0.0847 and the relative viability (NCI-H2126; first compound 0.0002 µM) was 0.518. The relative viability (NCI-H2126; first compound 0.000632 µM) was 0.541, the relative viability (NCI-H2126; first compound 0.002 µM) was 0.393 and the relative viability (NCI-H2126; first compound 0.006325 µM) was 0.362. It also gave a relative viability (NCI-H2126; first compound 0.02 µM) of 0.257, a relative viability (NCI-H650; first compound 0.0002 µM) of 0.75 and a relative viability (NCI-H650; first compound 0.000632 µM) of 0.48. For the same compound, the relative viability (NCI-H650; first compound 0.002 µM) was 0.313, the relative viability (NCI-H650; first compound 0.006325 µM) was 0.274 and the relative viability (NCI-H650; first compound 0.02 µM) was 0.207. The relative viability (PC-14; first compound 0.0002 µM) was 0.629, the relative viability (PC-14; first compound 0.000632 µM) was 0.376 and the relative viability (PC-14; first compound 0.002 µM) was 0.0774. The relative viability (PC-14; first compound 0.006325 µM) was 0.0423, the relative viability (PC-14; first compound 0.02 µM) was 0.0293 and the relative viability (UMC-11; first compound 0.0002 µM) was 0.799. For the same compound, the relative viability (UMC-11; first compound 0.000632 µM) was 0.835, the relative viability (UMC-11; first compound 0.002 µM) was 0.245 and the relative viability (UMC-11; first compound 0.006325 µM) was 0.226. The relative viability (UMC-11; first compound 0.02 µM) was 0.136, the relative viability (NCI-H1915; first compound 0.0002 µM) was 0.857 and the relative viability (NCI-H1915; first compound 0.000632 µM) was 0.931. The relative viability (NCI-H1915; first compound 0.002 µM) was 0.275, the relative viability (NCI-H1915; first compound 0.006325 µM) was 0.257 and the relative viability (NCI-H1915; first compound 0.02 µM) was 0.11. It also gave a relative viability (NCI-H1355; first compound 0.0002 µM) of 0.479, a relative viability (NCI-H1355; first compound 0.000632 µM) of 0.426 and a relative viability (NCI-H1355; first compound 0.002 µM) of 0.256. For the same compound, the relative viability (NCI-H1355; first compound 0.006325 µM) was 0.224, the relative viability (NCI-H1355; first compound 0.02 µM) was 0.179 and the relative viability (NCI-H1651; first compound 0.0002 µM) was 0.477. It also gave a relative viability (NCI-H1651; first compound 0.000632 µM) of 0.443, a relative viability (NCI-H1651; first compound 0.002 µM) of 0.206 and a relative viability (NCI-H1651; first compound 0.006325 µM) of 0.095. For the same compound, the relative viability (NCI-H1651; first compound 0.02 µM) was 0.0784, the relative viability (EPLC-272H; first compound 0.0002 µM) was 0.27 and the relative viability (EPLC-272H; first compound 0.000632 µM) was 0.198. The relative viability (EPLC-272H; first compound 0.002 µM) was 0.161, the relative viability (EPLC-272H; first compound 0.006325 µM) was 0.111 and the relative viability (EPLC-272H; first compound 0.02 µM) was 0.126. The relative viability (NCI-H2085; first compound 0.0002 µM) was 0.532, the relative viability (NCI-H2085; first compound 0.000632 µM) was 0.467 and the relative viability (NCI-H2085; first compound 0.002 µM) was 0.41. For the same compound, the relative viability (NCI-H2085; first compound 0.006325 µM) was 0.374, the relative viability (NCI-H2085; first compound 0.02 µM) was 0.237 and the relative viability (HOP-62; first compound 0.0002 µM) was 0.75. It also gave a relative viability (HOP-62; first compound 0.000632 µM) of 0.395, a relative viability (HOP-62; first compound 0.02 µM) of 0.101 and a relative viability (HCC-15; first compound 0.0002 µM) of 0.679. It also gave a relative viability (HCC-15; first compound 0.000632 µM) of 0.491, a relative viability (HCC-15; first compound 0.002 µM) of 0.226 and a relative viability (ABC-1; first compound 0.0002 µM) of 0.772. The relative viability (ABC-1; first compound 0.000632 µM) was 0.685, the relative viability (ABC-1; first compound 0.002 µM) was 0.442 and the relative viability (ABC-1; first compound 0.006325 µM) was 0.304. It also gave a relative viability (ABC-1; first compound 0.02 µM) of 0.253, a relative viability (LU99A; first compound 0.0002 µM) of 0.337 and a relative viability (LU99A; first compound 0.000632 µM) of 0.249. For the same compound, the relative viability (LU99A; first compound 0.002 µM) was 0.267, the relative viability (LU99A; first compound 0.006325 µM) was 0.191 and the relative viability (LU99A; first compound 0.02 µM) was 0.148. It also gave a relative viability (NCI-H838; first compound 0.0002 µM) of 0.477, a relative viability (NCI-H838; first compound 0.000632 µM) of 0.473 and a relative viability (NCI-H838; first compound 0.002 µM) of 0.276. It also gave a relative viability (NCI-H838; first compound 0.006325 µM) of 0.149, a relative viability (NCI-H838; first compound 0.02 µM) of 0.116 and a relative viability (NCI-H2347; first compound 0.0002 µM) of 0.462. The relative viability (NCI-H2347; first compound 0.000632 µM) was 0.564, the relative viability (NCI-H2347; first compound 0.002 µM) was 0.696 and the relative viability (NCI-H2347; first compound 0.006325 µM) was 0.647. For the same compound, the relative viability (NCI-H2347; first compound 0.02 µM) was 0.066, the relative viability (HARA; first compound 0.0002 µM) was 0.211 and the relative viability (HARA; first compound 0.000632 µM) was 0.159. The relative viability (HARA; first compound 0.002 µM) was 0.126, the relative viability (HARA; first compound 0.006325 µM) was 0.0701 and the relative viability (HARA; first compound 0.02 µM) was 0.0659. It also gave a relative viability (NCI-H1993; first compound 0.0002 µM) of 0.746, a relative viability (NCI-H1993; first compound 0.000632 µM) of 0.706 and a relative viability (NCI-H1993; first compound 0.002 µM) of 0.729. For the same compound, the relative viability (NCI-H1993; first compound 0.006325 µM) was 0.682, the relative viability (NCI-H1993; first compound 0.02 µM) was 0.545 and the relative viability (NCI-H2023; first compound 0.0002 µM) was 0.213. For the same compound, the relative viability (NCI-H2023; first compound 0.000632 µM) was 0.188, the relative viability (NCI-H2023; first compound 0.002 µM) was 0.142 and the relative viability (NCI-H2023; first compound 0.006325 µM) was 0.11. It also gave a relative viability (NCI-H2023; first compound 0.02 µM) of 0.0766, a relative viability (COR-L23; first compound 0.0002 µM) of 0.632 and a relative viability (COR-L23; first compound 0.000632 µM) of 0.649. The relative viability (COR-L23; first compound 0.002 µM) was 0.42, the relative viability (COR-L23; first compound 0.006325 µM) was 0.124 and the relative viability (COR-L23; first compound 0.02 µM) was 0.0817.
